In patent publication US6861448B2, “NAD synthetase inhibitors and uses thereof” (priority 1998, dated 2005):
Counter-ions that a name gives are not always drawn. Like-named read-outs stand apart in the source and are kept apart here.

Tests used:
[1] = tested on: E. coli; test: MIC test (NCCLS broth dilution), growth inhibition; format: cell-based; details: Escherichia coli
Method: (§1) Antimicrobial Testing (P. aeruginosa, E. coli, B. subtilis, S. aureus, S. aureus (MCR), A. niger and M. flavescens.)
(§2) The test compounds were solubilized, diluted, and pipetted in duplicate into 10 mL sterile culture tubes and dried under vacuum.
(§3) Challenge organisms, specified were grown overnight at 37° C. in the appropriate medium (i.e., Mueller-Hinton Broth). These pure broth cultures were diluted 1:1,000 and 2.0 mL were added to the test compound tubes.
(§4) Appropriate media controls, challenge organism viability controls, and antibiotic control dilutions (i.e., ampicillin and nystatin), were prepared in the same manner as the test compounds and run against the challenge organisms.

[2] = tested on: P aeruginosa; test: MIC test (NCCLS broth dilution), growth inhibition; format: cell-based; details: Pseudomonas aeruginosa, read-out: Potency to inhibit growth, P aeruginosa (MIC)
Method: as §1, §2, §3, §4

[3] = tested on: A. niger; test: MIC test, fungal growth inhibition; format: cell-based; details: Aspergillus niger, read-out: Potency to inhibit growth, A. niger (MIC)
Method: as §1
(§5) The MIC test procedures conformed to the present protocol from the National Committee for Clinical Laboratory Standards (NCCLS), and were designed to provide basic antimicrobial data on compounds based on the MIC of the active component.
as §2, §3, §4

[4] = tested on: S. aureus (MCR); test: microbe, parasite or virus in culture; format: cell-based; details: for MIC: Staphylococcus aureus, read-out: Minimal Inhibitory Concentration (MIC), S. aureus (MCR), multiple values = two or more tests
[5] = tested on: M. flavescens; test: microbe, parasite or virus in culture; format: cell-based; details: Mycolicibacterium flavescens; read-out: Minimal Inhibitory Concentration (MIC), M. flavescens
[6] = tested on: Murine 3T3 cells; test: Cytotoxicity in murine 3T3 cells (LDH release); format: cell-based; details: at 100 μM, 20 hrs
Method: (§6) Prior to conducting the assay, cell number, serum concentration, and medium conditions were optimized. Then using the assay conditions as described below, cells were seeded on day 1 and allowed to adhere for at least 1 hour. […] The initial solubilization of the test articles was in 50:50 methanol:water (v/v). […] On day 1, compounds 1439 and 1364 required sonication before solubility was reached). The cells plus compound were incubated overnight at 37° C., under a 5% CO2/[…] atmosphere. On day 2, the cells in the positive control wells were lysed with 0.9% Triton X-100 for 45 minutes to establish maximum levels of LDH release. The plates were centrifuged at 250× g for 5 minutes, the supernatants transferred to a new assay plate, and the LDH was measured. The assay plates were read at OD 490 nm.

[7] = tested on: rabbit primary renal cells (RPRC); test: Cytotoxicity in rabbit primary renal cells (annexin V / PI flow cytometry); format: cell-based; details: 24 hr, mean ± SEM; for % CELLULAR NECROSIS (RPRC): at 300 μM; for % APOPTOSIS (RPRC): at peak effect (30 μM)
Method: Cytotoxicity in Rabbit Primary Renal Cells
Isolation of Proximal Tubules and Culture Conditions
Rabbit renal proximal tubules were isolated using the iron oxide perfusion method and grown in 35-mm tissue culture dishes under improved conditions. The cell culture medium was a 1:1 mixture of DMEM/Ham's F-12 (without D-glucose, phenol red, or sodium pyruvate) supplemented with 15 mM HEPES buffer, 2.5 mM L-gluatmine, 1 μM pyridoxine HCL, 15 mM sodium bicarbonate, and 6 mM lactate. Hydrocortisone (50 nM), selenium (5 ng/mL), human transferrin (5 μg/mL), bovine insulin (10 nM) and L-ascorbic acid-2-phosphate (50 μM) were added to fresh culture medium immediately prior to daily media change.
All numbered compounds were diluted in methanol and the final concentration of methanol in RPRC was less then 0.1% (v/v).
Measurement of RPRC Death
Cell death was monitored in RPRC by assessment of both annexin V and PI staining using flow cytometry. Briefly, RPRC were exposed to the indicated concentrations of compounds for 24 hr. Media was removed and RPRC washed twice with phosphate-buffered saline (PBS) and incubated in a binding buffer (10 mM HEPES, 140 mM NaCL, 5 mM KCL, 1 mM MgCl2, 1.8 mM CaCl2, pH=7.4) containing annexin V-FITC (1 μmol) and PI (25 μg/mL). After a 10 min incubation, RPRC were washed three times in the binding buffer and were released from the monolayers by gentle scrapping with a rubber policeman. Annexin V and PI staining were measured using a BectonDickson FacsCalibur flow cytometer (San Jose, Calif.). An equal number of cells (10,000) were counted for sample and apoptotic cells were defined as those that stained positive for annexin V-FITC only. RPRC undergoing necrotic cell death stained for PI only.
RPRC isolated from one rabbit represented one experiment (n=1). Data were analyzed and are reported as means±standard error of the mean of at least 3 separate experiments.

[8] = target: NAD synthetase (Bacillus subtilis, UniProt P08164); test: NAD synthetase coupled enzyme assay; format: biochemical
Sequence of NAD synthetase (P08164 whole entry): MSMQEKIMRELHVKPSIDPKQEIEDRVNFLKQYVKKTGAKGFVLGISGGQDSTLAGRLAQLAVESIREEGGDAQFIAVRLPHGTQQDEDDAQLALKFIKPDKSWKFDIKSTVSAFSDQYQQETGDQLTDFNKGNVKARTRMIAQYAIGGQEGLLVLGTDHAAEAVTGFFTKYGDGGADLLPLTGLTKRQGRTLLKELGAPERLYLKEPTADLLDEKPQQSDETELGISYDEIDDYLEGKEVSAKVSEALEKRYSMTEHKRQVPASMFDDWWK
How it was run: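 NAD formed by B. subtilis NAD synthetase was converted to NADH by coupled alcohol dehydrogenase. NADH was read both by absorbance at 340 nm and by fluorescence (ex 320/em 460 nm). Controls covered inhibitor background, precipitation and ADH inhibition.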

[9] = Solubilization of test articles in methanol:water; format: physicochemical; details: 50:50 methanol:water (v/v)
Method: as §6

[10] = tested on: C. albicans; test: MIC test, fungal growth inhibition; format: cell-based; details: Candida albicans, in vitro; read-out: Potency to inhibit growth, C. albicans (MIC)
Method: as §5, §2, §3, §4

[11] = tested on: B. subtilis; test: microbe, parasite or virus in culture; format: cell-based; details: Bacillus subtilis, multiple values = two or more tests; read-out: Minimal Inhibitory Concentration (MIC), B. subtilis
[12] = tested on: S. aureus; test: microbe, parasite or virus in culture; format: cell-based; details: Staphylococcus aureus, multiple values = two or more tests; read-out: Minimal Inhibitory Concentration (MIC), S. aureus
[13] = tested on: Bacillus anthracis Sterne 34F2; test: microbe, parasite or virus in culture; format: cell-based; details: Bacillus anthracis

Structure (SMILES)	melting point [°C]	MIC ([1]; read-out: Potency to inhibit growth, E. coli (MIC), in vitro) [mg/L]	MIC [2] [mg/L]	MIC [3] [mg/L]	MIC [4] [mg/L]	Minimal Inhibitory Concentration (MIC), S. aureus (MCR) ([4]; multiple values = two or more tests) [mg/L]	MIC [5] [mg/L]	% CELLULAR NECROSIS (FIBROBLASTS) [6] [%]	% CELLULAR NECROSIS (RPRC) [7] [%]	% APOPTOSIS (RPRC) [7] [%]	IC50 [8] [µM]	solubility of test article in methanol:water [9]	MIC ([1]; in vitro, read-out: Potency to inhibit growth, E. coli (MIC)) [mg/L]	MIC ([2]; in vitro) [mg/L]	MIC [10] [mg/L]	MIC ([3]; in vitro) [mg/L]	MIC [11] [mg/L]	MIC [12] [mg/L]	MIC ([13]; STERNE34F2, read-out: approximate MIC, B. anthracis (first value)) [mg/L]	MIC ([13]; STERNE34F2, read-out: approximate MIC, B. anthracis (second value)) [mg/L]
N=C(N)N[C@@H](Cc1ccccc1)C(=O)NCCCCCCCCOc1ccc(OCc2ccccc2)cc1 (as salt: trifluoroacetic acid salt) [Compound 1503]	108 to 113	–	–	–	–	–	–	–	–	–	–	–	–	–	–	–	–	–	–	–
C[N+](C)(C)C(Cc1ccccc1)C(=O)NCCCCCCCCOc1ccc(OCc2ccccc2)cc1 (stereo not drawn) [Compound 1364]	–	< 50	> 50	> 50	< 0.78	<1.56	> 50	62	63 ± 2	15 ± 3	48.4	went into solution on day 1, but precipitated on day 2	–	–	–	–	–	–	–	–
C[N+](C)(C)[C@H](COCCCCCCCCOc1ccc(OCc2ccccc2)cc1)Cc1ccccc1 [Compound 1439]	–	–	–	–	< 1.56	–	< 12.5	73	62 ± 2	10 ± 1	22.7	never went into solution at 50% organic	< 12.5	> 50	< 3.13	< 25	< 0.39	< 0.78	4	4
